Results reported in ChEMBL document CHEMBL1129313, “Oxidation chemistry of (-)-norepinephrine in the presence of L-cysteine” (J Med Chem, 1996).
The source made the active and inactive calls. The rule behind the calls is not given here.

Assays:
Mus musculus [1] = test: In vivo behavioral response evoked when a dose of 100 microg injected into mice under light ether anesthesia; No response; format: functional, organism-based
Mus musculus [2] = test: In vivo toxic dose of injected compound at a dose of 10 to 100 ug at which 50% of mice died within 1 hr of treatment; format: ADME, organism-based
Mus musculus [3] = test: In vivo toxic dose of injected compound at a dose of 5 to 100 ug at which 50% of mice died within 1 hr of treatment; format: ADME, organism-based

Question: Which Activity (Mus musculus [1]) does the source give for `NCC(O)c1cc(O)c(O)c(SCC(N)C(=O)O)c1` (stereo unspecified) here?
Answer: inactive

Question: `NCC(O)c1cc(SCC(N)C(=O)O)c(O)c(O)c1SCC(N)C(=O)O` (stereo unspecified) was tested. Which Activity (Mus musculus [1]) did it give?
Answer: inactive

Question: How did the Activity (Mus musculus [1]) turn out when `NCC(O)c1cc(SCC(N)C(=O)O)c(O)c2c1SCC(C(=O)O)N2` (stereo unspecified) was run?
Answer: inactive

Question: Which LD50 (Mus musculus [2]) does the source give for `NCC(O)c1ccc(O)c2c1SCC(C(=O)O)N2` (stereo unspecified) here?
Answer: 23.4 µg

Question: For `NCC(O)c1cc(O)c2c(c1)SCC(C(=O)O)N2` (stereo unspecified), which LD50 (Mus musculus [3]) is on record?
Answer: 17.8 µg

Question: `NCC(O)c1c2c(c(O)c(SCC(N)C(=O)O)c1SCC(N)C(=O)O)NC(C(=O)O)CS2` (stereo unspecified) was tested. Which Activity (Mus musculus [1]) did it give?
Answer: inactive
